Data on one compound can be found in US20160345553A1, “TRANSGENIC MOUSE MODELS FOR MC4R” (UNIVERSITE DE MONTREAL, priority 2012, published 2016).

Experiment [1] deals with hMC4R (R165W) knock-in mice. The experiment can be described thus: In vivo test of DCPMP on knock-in mouse model carrying human mutant form of MC4R (food intake, weight loss). Particulars: 30 mg per kg i.p. one dose daily for 9 days. Here is the method:
(§1) Mice were intraperitoneally injected one dose daily with vehicle or DCPMP at 30 mg per kg one hour before light off, for 9 days. Data are the average daily food intake (A, B. C), or the mean of the total body weight loss [total body weight before treatment—total body weight after 9 days treatment] (D), for each experimental group, Data are expressed as Mean±SEM. Numbers of animal per genotype are indicated in brackets.
(§2) Mice were intraperitoneally injected one dose daily with vehicle or N-((2R)-3(2,4-dichlorophenyl)-1-(4-(2-((1-methoxypropan-2-ylamino)methyl)phenyl)piperazin-1-yl)-1-oxopropan-2-yl)propionamide (DCPMP) at 30 mg per kg one hour before light off, for 9 days.
(§3) Animals were individually housed for 4 days prior to starting experiments. […] All animals were weighed prior to compound injection, and doses were normalized to individual animal body weight. Mice were intraperitoneally injected one dose daily with vehicle (1% Tween 80) or DCPMP at 30 mg per kg one hour before lights off (at 5:00 PM), for 9 days. Weight was monitored every 3 days during treatment and after stopping treatment. Food intake was measured during the recovery time for 7 days. Data are the average daily food intake or the mean of total body weight loss [total body weight before treatment—total body weight after 9 days treatment].

Experiment [2] relates to non-transgenic littermate mice. The experiment can be described thus: In vivo test of DCPMP in non-transgenic littermate mice (food intake). More on the design: species or system mouse. Particulars: at the beginning of DCPMP treatment, 30 mg per kg i.p. daily. Here is the method: as §1, §2, §3

Turning to `CCC(=O)N[C@H](Cc1ccc(Cl)cc1Cl)C(=O)N1CCN(c2ccccc2CNC(C)COC)CC1` (stereo partly drawn) [DCPMP, N-((2R)-3(2,4-dichlorophenyl)-1-(4-(2-((1-methoxypropan-2-ylamino)methyl)phenyl)piperazin-1-yl)-1-oxopropan-2-yl)propionamide], the food intake result in experiment [1] (hMC4R (R165W) male mice) is “reducing food intake”. The “weight loss, % of total weight” value in experiment [1] (initially overweight heterozygous hMC4R (R165W) mice) is listed as “up to 13%”; in experiment [1] (initially overweight homozygous hMC4R (R165W) mice) it was at most 15%. Besides, the food consumption entry in experiment [2] is listed as “slightly reduced”.
